“Also recorded” adds a separate entry of the source.
How the values were obtained:
MIF tautomerase = biological target: T1, MIF tautomerase (Homo sapiens, UniProt P14174); experiment: MIF tautomerase inhibition assay; type: biochemical; settings: structure activity relationship studies (FIG. 10)
T1 construct: host or cells: E. coli BL21
T1 sequence (P14174 2-115 limits assumed): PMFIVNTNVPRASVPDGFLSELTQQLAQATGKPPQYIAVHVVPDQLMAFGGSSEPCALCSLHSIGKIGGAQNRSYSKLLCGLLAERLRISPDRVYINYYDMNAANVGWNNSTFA
Procedure: Human recombinant MIF was purified as per Bernhagen et al. (Biochemistry, 1994. 33(47): p. 14144-55). Briefly, BL21 E. coli cells expressing the pET11b-MIF construct were grown to an absorbance at 600 nm (OD) of […]. Isopropyl 1-thio-P-D-galactopyranoside (IPTG) (Sigma—cat no. 16758) was added to a final concentration of 1 mM to induce expression of the MIF gene and incubated for another 3 hours. Bacteria were then harvested by centrifugation and the cell pellets were then frozen. Protein purification was then out sourced to Scottish Biomedical, where the bacterial pellets were thawed and resuspended in 3 ml of Tris-buffered saline. The bacteria were then lysed by adding an equivalent number of glass beads and vortexing strongly for 10 minutes. Glass beads were removed by centrifugation at 1000 g for 10 minutes and the bacterial extract was centrifuged at 1000 g for a further 30 minutes. The supernatant was then sterile-filtered through a […] membrane filter and put through a MONO Q anion exchange chromatography column. MIF was eluted using Tris-buffered saline in the first flow-through fractions and pooled and placed on ice. These pooled fractions were then applied to a C8-SepPak reverse phase column. Unbound material was eluted by washing with water and 20% acetonitrile/water. MIF was then eluted using 6 column volumes of 60% acetonitrile/water. This sample was then renatured by dissolving MIF at a concentration of […] in 20 mM sodium phosphate buffer containing 8M urea and 5 mM DTT and dialysed against 20 mM sodium phosphate buffer. […]
L-dopachrome methyl ester was prepared at 2.4 mM through oxidation of L-3,4-dihydroxyphenylalanine methyl ester with sodium periodate. The solution was mixed well and placed at room temperature for 5 minutes before being placed on ice in the dark. 100 ng of rMIF was added to each of the Tautomerase Inhibitors or ISO-1 at a number of concentrations (1, 50 and 100 μM) with substrate. The decrease in absorbance was measured with a spectrophotometer at 475 nm every 10 seconds for 10 minutes.
The rate of the reaction of rMIF and substrate alone was measured over time at 475 nm. This was compared to the rate of this reaction with the addition of 100 μM of each of the inhibitors. Inhibition was calculated as the percentage in the reduction of the rate of change with the addition of the inhibitor averaged over five minutes.

prostate cancer cells = settings: cited from earlier work
PGE-2 = settings: increasing concentrations; cited from earlier work
[1] = tested on: Lewis Lung carcinoma cells; experiment: Subcutaneous LLC1 tumour model with in vivo tautomerase inhibitor treatment; parameters: species or system C57BL/6 mice; settings: 35 mg/kg intraperitoneally 30 min prior to inoculation and twice weekly, day 28 (FIG. 8)
Procedure: Log phase cultures of LLC-1 cells were harvested by trypsinisation and washed three times with sterile phosphate buffered saline (PBS) and resuspended at a cell density of 5×10^5/ml in PBS. Animals were shaved with an electric shaver 24 hours before subcutaneous injection. 5×10^5 Lewis Lung cells were injected subcutaneously into the left flank of C57BL/6 mice of 6-8 weeks. Animals were monitored for the duration of the experiment and tumour measurements were recorded twice weekly with a digital callipers. Tumour volume (mm^3) was calculated as 0.5×L×W^2, where length is representative of the larger tumour diameter and the width represents the smaller tumour diameter. Animals are sacrificed when tumours reach a diameter of 15 mm or if tumours become ulcerated. Tumours are then removed along with the lungs, spleen and liver.
30 minutes prior to LLC-1 inoculation, inhibitors (TI 19/ISO-1) were administered at a concentration of 35 mg/kg in a volume of 100 μl 5% DMSO in sterile PBS. Control groups were given injections of vehicle 5% DMSO in sterile PBS or sterile PBS alone. Animals were treated twice weekly for four weeks.
In order to assess the antitumour activity of the novel tautomerase inhibitors in vivo, a subcutaneous LLC-1 cell model was set up. The subcutaneous model was chosen so that tumours could be easily visualised and measured during the course of the experiment and to allow assessment of the growth of the tumour in real time. Lewis Lung carcinoma cells (5×10^5) were injected sub-cutaneously into the left flank of C57BL/6 mice. Caliper measurements were taken twice weekly and tumour volume (mm^3) was calculated as 0.5×L×W^2. […] The cut off point for this model was when the tumour measured 15 mm in diameter. This model gave us an indication of normal tumour growth in this subcutaneous model. It can be seen from this model that from day 22 to day 28 the size of the tumour grows considerably.
Once it was determined that the enzymatic activity played a role in the growth of tumours, the subcutaneous LLC model was then used to assess the efficiency of the small weight molecular inhibitors. C57/B16 mice were injected intraperitoneally with 35 mg/kg of each of the inhibitors 30 minutes prior to subcutaneous tumour inoculation and again twice weekly for 4 weeks. Animals were monitored daily and tumour measurements taken until the tumour measured 15 mm in diameter.

[2] = tested on: Lewis Lung carcinoma cells (LLC); experiment: LLC-GLuc proliferation assay with rMIF; type: cell-based, mouse; settings: 100 μM inhibitor, 100 ng/ml rMIF, 48 hours (FIG. 5)
Procedure: LLC-GLuc cells were plated in a 6 well plate at a density of 5×10^4 cells/ml in DMEM supplemented with P/S, 10% FCS and L-Glu. After overnight adherence, 100 ng/ml MIF was added along with the inhibitors or DMSO to a total of 1 ml serum free medium. Cells were harvested after 48 hours by trypsinisation and counted in a haemocytometer.
The ability of candidate compounds to reduce cellular proliferation was also examined. For this assay, LLC cells were plated at a cell density of 5×10^4 cells/ml. The cells were then pre-treated with TI 19 or ISO-1 at a concentration of 100 μM. The cells were then treated with 100 ng/ml of recombinant MIF. The cells were incubated at 37° C. in a humidified 5% CO2 incubator and after 48 hours the cells were harvested and counted.

[3] = tested on: LPS mediated PGE-2 production; experiment: PGE-2 production in LPS treated RAW macrophage cells (ELISA); type: cell-based, murine; settings: 100 μM inhibitor, 100 ng/ml LPS (FIG. 4)
Procedure: Raw macrophage murine cells were plated at a cell density of 1×10^5 and pre-treated with 100 μM of each of the inhibitors […] for 30 minutes at 37° C. in a humidified 5% CO2 incubator. Raw macrophage cells were then treated with 100 ng/ml of LPS and supernatants were collected after 16 hours at 37° C. in a humidified 5% CO2 incubator and analysed for PGE-2 production. Levels of PGE-2 were measured by ELISA. (CAT # KGE004 R&D Syst).

[4] = tested on: LPS induced TNF-α production; settings: RAW 264.7 cell line, previously shown; cited from earlier work
[5] = tested on: LPS induced TNF-α production; experiment: Inhibition of LPS induced TNF-α production in RAW 264.7 macrophage cells (ELISA); type: cell-based, mouse
Procedure: RAW 264.7 macrophage cells were plated at 1×10^5/ml in 450 μl of medium in a 48 well plate. 16 hours later cells were treated with ISO-1 or Tautomerase Inhibitors at a final concentration of 10, 50 or 100 μM for 30 minutes before stimulation with 100 ng/ml LPS. Supernatants were collected after 20 hours for determination of TNF-α levels. TNF-α levels were determined using a TNF-α specific ELISA (CAT # DY410 R&D Syst).
96 well plates were coated with 50 μl of Capture Antibody ([…]) in PBS and sealed and incubated overnight at 4° C. Plates were then washed three times in 0.05% PBS Tween and plates blotted. Plates were blocked by adding 150 μl of 1% BSA in PBS (Gibco—cat no. 14190-094) to each well and incubated at room temperature for 2 hours. Plates were washed again as previously described. 50 μl of sample or standard was added to each well and incubated for overnight at 4° C. Plates were then washed again as described. 50 μl of the detection Antibody (200 ng/ml) in 1% BSA in PBS was added to each well and incubated for 2 hours at room temperature. Plates were then washed again as described. 50 μl of working concentration of Streptavidin—HRP was added to each well and plates were covered and incubated for 20 minutes at room temperature. 50 μl of substrate solution (One OPD tablet and one urea hydrogen peroxide/buffer tablet were dissolved in 20 ml of water to yield a ready to use buffered solution, Sigma—cat no. 9187-50) was added to each well and incubated for 20 minutes at room temperature. 25 μl of 2N H2SO4 was added to each well to stop the reaction. The optical density of each well was then measured with a spectrophotometer at 450 nm.
Initially the panel of 25 novel potential tautomerase inhibitors was screened in an in-vitro system. In order to do this we exploited the fact that MIF is needed for optimal LPS induced TNF-α production. We therefore reasoned that our potential TIs should be able to inhibit LPS induced TNF-α in RAW macrophage murine cells. RAW macrophage murine cells were plated at 37° C. in a humidified 5% CO2 incubator. 16 hours later the cells were pre-treated with each of the inhibitors at concentration of 100, 50 or 10 μM for 30 minutes 100 ng/ml of LPS was then added to the cells and supernatants were collected after 16 hours and analysed for TNF-α production by ELISA.

[6] = tested on: circulating levels of TNF-α; settings: LPS induced model of murine sepsis; cited from earlier work
[7] = comparative analysis, same assay

Question: With `Cc1ccccc1-c1cc2ccccc2c(=O)[nH]1` [SDG-42] as the compound, how does the “tautomerase inhibitory activity of analogues, in words” value (MIF tautomerase) read?
Answer: The value was “ineffective as a tautomerase inhibitor”.

Question: With `O=c1oc(-c2ccccc2O)cc2ccccc12` [SDG-50] as the compound, how does the “tautomerase inhibitory activity of analogues, in words” value (MIF tautomerase) read?
Answer: Its value is “dramatic loss in tautomerase inhibition activity”.

Question: For `COC(=O)CC1CC(c2ccc(O)cc2)=NO1` (stereo not shown) [ISO-1, reference compound], which “cell proliferation, in words” value (prostate cancer cells) is on record?
Answer: The value was “decreased cell proliferation in prostate cancer cells”.

Question: What about the “production of PGE-2, in words” value (PGE-2) of the same compound?
Answer: The value was “reduce the production of PGE-2 in a dose dependant manner”.

Question: What about the “reduction in tumour growth / tumour size” value [1] of the same compound?
Answer: Its value is “over 50%”.

Question: And the “reduction of MIF induced proliferation, in words” value [2]?
Answer: The value was “less so; also recorded: reduced the MIF induced proliferation”.

Question: What about the “reduction of LPS mediated PGE-2 production, in words” value [3] of the same compound?
Answer: The value was “significantly reduces”.

Question: What about the “TNF-α production induced by LPS, in words” value [4] of the same compound?
Answer: Its value is “inhibit TNF-α production induced by addition of LPS”.

Question: And the “reduction of TNF-α production” value ([5]; 100 μM inhibitor 30 minutes before 100 ng/ml LPS (FIG. 2A))?
Answer: The value was 20%.

Question: What about the “circulating levels of TNF-α, in words” value [6] of the same compound?
Answer: The value was “reduce circulating levels of TNF-α”.

Question: For `Cc1cc2cc(-c3ccccc3C)oc(=O)c2cc1O` [SDG-52, 3-(2′-methylphenyl)-6-methyl-7-hydroxyisocoumarin], which “tautomerase inhibitory activity of analogues, in words” value (MIF tautomerase) is on record?
Answer: The value was “some inhibitory activity”.

Question: Which “tautomerase inhibitory activity of analogues, in words” value (MIF tautomerase) does the source give for `COc1cc2c(=O)oc(-c3ccccc3C)cc2cc1C` [SDG-51, 3-(2′-methylphenyl)-6-methyl-7-methoxyisocoumarin] here?
Answer: Its value is “did not significantly inhibit MIF tautomerase”.

Question: With `O=c1oc(-c2ccccc2)cc2ccccc12` [SDG-46] as the compound, how does the “tautomerase inhibitory activity of analogues, in words” value (MIF tautomerase) read?
Answer: The value was “inactivity”.

Question: For `Cc1cc2ccccc2c(=O)o1` [SDG-40], which “tautomerase inhibitory activity of analogues, in words” value (MIF tautomerase) is on record?
Answer: Its value is “dramatic loss of inhibitory activity”.

Question: With `COc1ccc2cc(-c3ccccc3C)oc(=O)c2c1` [SDG-23] as the compound, how does the “tautomerase inhibitory activity of analogues, in words” value (MIF tautomerase) read?
Answer: Its value is “did not significantly inhibit MIF tautomerase”.

Question: Which “tautomerase inhibitory activity of analogues, in words” value (MIF tautomerase) does the source give for `COc1cc2cc(-c3ccccc3C)oc(=O)c2cc1OC` [SDG-53, 3-(2′-methylphenyl)-6,7-dimethoxyisocoumarin] here?
Answer: The value was “did not significantly inhibit MIF tautomerase”.

Question: Which “tautomerase inhibitory activity of analogues, in words” value (MIF tautomerase) does the source give for `Cc1cccc(-c2cc3ccc(O)cc3c(=O)o2)c1` [SDG-47, 3-(3′-methylphenyl)-7-hydroxyisocoumarin] here?
Answer: Its value is “almost complete inhibition of MIF tautomerase activity”.

Question: What does the source list for `Cc1ccccc1-c1cc2cc(O)c(O)cc2c(=O)o1` [SDG-54, 3-(2′-methylphenyl)-6,7-hydroxyisocoumarin]?
Answer: inhibition of MIF tautomerase activity, analogues of TI 19 (MIF tautomerase): 86%; tautomerase inhibitory activity of analogues, in words (MIF tautomerase): almost complete inhibition of MIF tautomerase activity

Question: With `Cc1ccccc1-c1cc2ccc(O)cc2c(=O)o1` [SDG-22, 3-(2′-methylphenyl)-7-hydroxyisocoumarin] as the compound, how does the “reduction of TNF-α production, comparative analysis” value ([5]; LPS stimulated RAW macrophage murine cells, 100 μM (FIG. 11)) read?
Answer: Its value is 97%.

Question: And the “more effective than ISO-1 in reducing TNF-α production” value [5, 7]?
Answer: Its value is 80%.

Question: What about the “more effective than TI 19 in reducing TNF-α production” value [5, 7] of the same compound?
Answer: Its value is 10%.

Question: What about the “reduction of TNF-α production, in words” value ([5]; concentration not given) of the same compound?
Answer: The value was “significant reduction in TNF-α production”.

Question: And the “inhibition of MIF tautomerase activity, analogues of TI 19” value (MIF tautomerase)?
Answer: Its value is over 90%.

Question: What about the “tautomerase inhibitory activity of analogues, in words” value (MIF tautomerase) of the same compound?
Answer: The value was “very effective inhibitor of MIF tautomerase; also recorded: most effective tautomerase inhibitor identified to date; also recorded: significantly more potent than TI 19”.

From patent US10106519B2, “3-phenyl-7-hydroxy-isocoumarins as macrophage migration inhibitory factor (MIF) inhibitors” (The Provost, Fellows, Foundation Scholars, & the Other …, priority 2014, dated 2018)
